# Measurements taken from US10351576B2, “Fused tricyclic pyrazole derivatives useful for farnesoid X receptors” (NOVARTIS AG, priority 2015, dated 2019).
# Target: T1, human Farnesoid X Receptor (FXR) ligand binding domain (GST-FXR LBD) (Homo sapiens, UniProt Q96RI1)
# T1 construct: purchased Invitrogen
# T1 sequence (Q96RI1 193-472 isoform Q96RI1-2): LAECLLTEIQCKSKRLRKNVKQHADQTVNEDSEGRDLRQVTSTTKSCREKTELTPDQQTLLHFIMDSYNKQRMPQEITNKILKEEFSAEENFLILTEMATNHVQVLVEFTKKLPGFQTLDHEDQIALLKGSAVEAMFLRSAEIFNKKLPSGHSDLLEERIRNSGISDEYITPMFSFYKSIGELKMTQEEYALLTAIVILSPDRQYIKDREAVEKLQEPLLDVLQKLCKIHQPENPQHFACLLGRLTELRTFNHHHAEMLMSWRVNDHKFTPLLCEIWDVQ
# Assay: Human GST-FXR LBD co-activator interaction assay (FXR HTRF assay)
# Type: biochemical
# Conditions: ligand-dependent interaction of GST-FXR LBD with biotin-labeled SRC-1 peptide, response relative to GW4064, read-out: FXR coactivator interaction assay (HTRF)
# From the text: Human GST-FXR LBD Co-Activator Interaction Assay
# The FXR HTRF assay is a biochemical assay measuring the interaction between FXR and a coactivator protein (SRC1). The ligand-induced interaction with a coactivator protein is a critical step in transcriptional activation by FXR. Thus, this is an assay designed to measure FXR agonist activity of the test compounds.
# Recombinant human Farnesoid X Receptor (FXR) ligand binding domain (amino acids 193-472) fused to glutathione S-transferase (GST) purified protein (GST-FXR LBD) was purchased (Invitrogen). The ligand-dependent interaction between GST-FXR LBD and a peptide derived from Steroid Receptor Coactivator-1 (SRC-1) was monitored by Fluorescence Resonance Energy Transfer (FRET). […] Test compounds (in DMSO solution) and detection reagents (anti-GST-Cryptate labeled antibody and Streptavidin-XL665 conjugate; CisBio) were added in assay buffer containing 50 mM KF. Plates are incubated at room temperature in the dark for 2.5 hrs before reading on an Envision (PerkinElmer) at 665 nm and 590 nm. The HTRF assay results were calculated from the 665 nm/590 nm ratio (ratio=(A665 nm/A590 nm)×10^4) and expressed in Delta F %=(Ratiosample−Rationegative)/Rationegative×100.
# A negative control (without Streptavidin-XL665) was run with each assay and represented the background fluorescence. A reference FXR agonist, (E)-3-(2-chloro-4-((3-(2,6-dichlorophenyl)-5-isopropylisoxazol-4-yl)methoxy)styryl)benzoic acid (Compound GW4064), was included in each experiment as positive control. The efficacy of each test compound was compared to that of GW4064. At each concentration, the relative activity of the test compound was expressed as Response %=(Rsample−RDMSO)/(Rpositive−RDMSO), where Rsample is the HTRF response (expressed in Delta F %) for the test compound, Rpositive is the maximal response for GW4064 at saturating concentrations, and RDMSO is the response for DMSO control. The EC50 values were calculated using GraphPad Prism (GraphPad Software) using non-linear regression curve fit (log(agonist) vs. response—variable slope (four parameters)).
row,EC50 [nM],SMILES
1,50,"CC(C)C(=O)NCCN(Cc1ccccc1)C(=O)c1nn(C)c2c1COc1ccc(Cl)cc1-2 [Compound 73, N-[2-(N-benzyl-1-{8-chloro-1-methyl-1H,4H-chromeno[4,3-c]pyrazol-3-yl}formamido)ethyl]-2-methylpropanamide]"
2,3,"Cn1nc(C(=O)N(CC(=O)NCCC(F)(F)F)Cc2cccc(F)c2)c2c1-c1cc(Cl)ccc1OC2 [Compound 2, 2-(1-{8-chloro-1-methyl-1H,4H-chromeno[4,3-c]pyrazol-3-yl}-N-[(3-fluorophenyl)methyl]formamido)-N-(3,3,3-trifluoropropyl)acetamide]"
3,8,"Cn1nc(C(=O)N(CC(=O)NCC(O)C(F)(F)F)Cc2ccccc2F)c2c1-c1cc(Cl)ccc1OC2 (stereo not shown) [Compound 44, 8-chloro-N-(2-fluorobenzyl)-1-methyl-N-(2-oxo-2-((3,3,3-trifluoro-2-hydroxypropyl)amino)ethyl)-1,4-dihydrochromeno[4,3-c]pyrazole-3-carboxamide]"
4,48,"Cn1nc(C(=O)N(CC(=O)NCC2CC2)Cc2nccs2)c2c1-c1cc(Cl)ccc1OC2 [Compound 81, 2-(1-{8-chloro-1-methyl-1H,4H-chromeno[4,3-c]pyrazol-3-yl}-N-(1,3-thiazol-2-ylmethyl)formamido)-N-(cyclopropylmethyl)acetamide]"
5,644,"CC(C)S(=O)(=O)NCCN(Cc1ccccc1F)C(=O)c1nn(C)c2c1COc1ccc(Cl)cc1-2 [Compound 63, 8-chloro-N-[(2-fluorophenyl)methyl]-1-methyl-N-[2-(propane-2-sulfonamido)ethyl]-1H,4H-chromeno[4,3-c]pyrazole-3-carboxamide]"
6,31,"Cn1nc(C(=O)N(CC(=O)NC2CC2)Cc2ccccc2F)c2c1-c1cc(Cl)ccc1OC2 [Compound 8, 2-(1-{8-chloro-1-methyl-1H,4H-chromeno[4,3-c]pyrazol-3-yl}-N-[(2-fluorophenyl)methyl]formamido)-N-cyclopropylacetamide]"
7,259,"Cn1nc(C(=O)N(CCNc2nccs2)Cc2cccc(F)c2)c2c1-c1cc(Cl)ccc1OC2 [Compound 76, 8-chloro-N-[(3-fluorophenyl)methyl]-1-methyl-N-{2-[(1,3-thiazol-2-yl)amino]ethyl}-1H,4H-chromeno[4,3-c]pyrazole-3-carboxamide]"
8,36,"CC(C)NC(=O)CN(Cc1cccc(F)c1)C(=O)c1nn(C)c2c1COc1ccc(Br)cc1-2 [Compound 28, 2-(1-{8-bromo-1-methyl-1H,4H-chromeno[4,3-c]pyrazol-3-yl}-N-[(3-fluorophenyl)methyl]formamido)-N-(propan-2-yl)acetamide]"
9,49,"Cn1nc(C(=O)N(CC(=O)NC2CCC2)Cc2ccccc2F)c2c1-c1cc(Cl)ccc1OC2 [Compound 19, 2-(1-{8-chloro-1-methyl-1H,4H-chromeno[4,3-c]pyrazol-3-yl}-N-[(2-fluorophenyl)methyl]formamido)-N-cyclobutylacetamide]"
10,160,"Cn1nc(C(=O)N(CC(=O)NC[C@@H]2CCCO2)Cc2ccccc2F)c2c1-c1cc(Cl)ccc1OC2 [Compound 21, 2-(1-{8-chloro-1-methyl-1H,4H-chromeno[4,3-c]pyrazol-3-yl}-N-[(2-fluorophenyl)methyl]formamido)-N-[(2S)-oxolan-2-ylmethyl]acetamide]"
11,509,"Cn1nc(C(=O)N(Cc2ccccc2)Cc2cccc(F)c2)c2c1-c1cc(Cl)ccc1OC2 [Compound 57, N-benzyl-8-chloro-N-[(3-fluorophenyl)methyl]-1-methyl-1H,4H-chromeno[4,3-c]pyrazole-3-carboxamide]"
12,33,"Cn1nc(C(=O)N(CC(=O)NCC(C)(O)C(F)(F)F)Cc2ccccc2F)c2c1-c1cc(Cl)ccc1OC2 (stereo not shown) [Compound 45, 2-(1-{8-chloro-1-methyl-1H,4H-chromeno[4,3-c]pyrazol-3-yl}-N-[(2-fluorophenyl)methyl]formamido)-N-(3,3,3-trifluoro-2-hydroxy-2-methylpropyl)acetamide]"
13,178,"Cn1nc(C(=O)N(CC(=O)NCC2CCOCC2)Cc2ccccc2F)c2c1-c1cc(Cl)ccc1OC2 [Compound 82, 2-(1-{8-chloro-1-methyl-1H,4H-chromeno[4,3-c]pyrazol-3-yl}-N-[(2-fluorophenyl)methyl]formamido)-N-(oxan-4-ylmethyl)acetamide]"
14,10,"CC(C)C(=O)NCCN(Cc1ccccc1F)C(=O)c1nn(C)c2c1COc1ccc(Cl)cc1-2 [Compound 66, N-[2-(1-{8-chloro-1-methyl-1H,4H-chromeno[4,3-c]pyrazol-3-yl}-N-[(2-fluorophenyl)methyl]formamido)ethyl]-2-methylpropanamide]"
15,54,"CCNC(=O)CN(Cc1ccccc1F)C(=O)c1nn(C)c2c1COc1ccc(Cl)cc1-2 [Compound 17, 2-(1-{8-chloro-1-methyl-1H,4H-chromeno[4,3-c]pyrazol-3-yl}-N-[(2-fluorophenyl)methyl]formamido)-N-ethylacetamide]"
16,96,"Cn1nc(C(=O)N(CC(=O)NCC2CC2)CC2CCCCC2)c2c1-c1cc(Cl)ccc1OC2 [Compound 74, 2-(1-{8-chloro-1-methyl-1H,4H-chromeno[4,3-c]pyrazol-3-yl}-N-(cyclohexylmethyl)formamido)-N-(cyclopropylmethyl)acetamide]"
17,58,"Cn1nc(C(=O)N(CC(=O)NC(C)(C)C)Cc2cccc(F)c2)c2c1-c1cc(Cl)ccc1OC2 [Compound 14, N-tert-butyl-2-(1-{8-chloro-1-methyl-1H,4H-chromeno[4,3-c]pyrazol-3-yl}-N-[(3-fluorophenyl)methyl]formamido)acetamide]"
18,190,"Cn1nc(C(=O)N(CC(=O)NC(C)(C)C)Cc2ccccc2F)c2c1-c1cc(Cl)ccc1OC2 [Compound 30, N-tert-butyl-2-(1-{8-chloro-1-methyl-1H,4H-chromeno[4,3-c]pyrazol-3-yl}-N-[(2-fluorophenyl)methyl]formamido)acetamide]"
19,192,"CNC(=O)c1ccc(NC(=O)CN(Cc2ccccc2F)C(=O)c2nn(C)c3c2COc2ccc(Cl)cc2-3)cc1 [Compound 37, 4-[2-(1-{8-chloro-1-methyl-1H,4H-chromeno[4,3-c]pyrazol-3-yl}-N-[(2-fluorophenyl)methyl]formamido)acetamido]-N-methylbenzamide]"
20,193,"CNC(=O)CN(Cc1ccccc1)C(=O)c1nn(C)c2c1COc1ccc(Br)cc1-2 [Compound 34, 2-(N-benzyl-1-{8-bromo-1-methyl-1H,4H-chromeno[4,3-c]pyrazol-3-yl}formamido)-N methylacetamide]"
21,14,"Cn1nc(C(=O)N(CC(=O)NC2CCC2)Cc2cccc(F)c2)c2c1-c1cc(Cl)ccc1OC2 [Compound 12, 2-(1-{8-chloro-1-methyl-1H,4H-chromeno[4,3-c]pyrazol-3-yl}-N-[(3-fluorophenyl)methyl]formamido)-N-cyclobutylacetamide]"
22,62,"Cn1nc(C(=O)N(CC(=O)NCCF)Cc2cccc(F)c2F)c2c1-c1cc(Cl)ccc1OC2 [Compound 33, 2-(1-{8-chloro-1-methyl-1H,4H-chromeno[4,3-c]pyrazol-3-yl}-N-[(2,3-difluorophenyl)methyl]formamido)-N-(2-fluoroethyl)acetamide]"
23,11,"Cn1nc(C(=O)N(CC(=O)NCCC(F)(F)F)Cc2ccccc2F)c2c1-c1cc(Cl)ccc1OC2 [Compound 4, 2-(1-{8-chloro-1-methyl-1H,4H-chromeno[4,3-c]pyrazol-3-yl}-N-[(2-fluorophenyl)methyl]formamido)-N-(3,3,3-trifluoropropyl)acetamide]"
24,99,"Cn1nc(C(=O)N(CC(=O)NC2CCS(=O)(=O)C2)Cc2cccc(F)c2)c2c1-c1cc(Cl)ccc1OC2 (stereo not shown) [Compound 36, 8-chloro-N-(2-((1,1-dioxidotetrahydrothiophen-3-yl)amino)-2-oxoethyl)-N-(3-fluorobenzyl)-1-methyl-1,4-dihydrochromeno[4,3-c]pyrazole-3-carboxamide]"
25,376,"Cn1nc(C(=O)N(CC(=O)NCC2CCCOC2)Cc2ccccc2F)c2c1-c1cc(Cl)ccc1OC2 (stereo not shown) [Compound 32, 2-(1-{8-chloro-1-methyl-1H,4H-chromeno[4,3-c]pyrazol-3-yl}-N-[(2-fluorophenyl)methyl]formamido)-N-(oxan-3-ylmethyl)acetamide]"
